From US20160272617A1, “SUBSTITUTED PHENYLALANINE DERIVATIVES” (BAYER PHARMA AKTIENGESELLSCHAFT, priority 2013, published 2016)
Counter-ions that a name gives are not always drawn.

Key:
human and animal plasma = test: Determination of anticoagulatory activity: activated partial thromboplastin time (aPTT) in plasma; conditions: concentration of test substance which brings about a 1.5-fold extension of the aPTT; plasma species not given
Summary of the method: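 Citrated plasma (1:9, 0.11 M citrate; 4000 g, 15 min) from human or animal blood incubated with test compound and cephalin/kaolin PTT reagent for 3 min at 37° C.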

human factor XIa = target: T1, human factor XIa (Homo sapiens, UniProt P03951); test: Measurement of FXIa inhibition (fluorogenic peptide substrate Boc-Glu(OBzl)-Ala-Arg-AMC); format: biochemical; conditions: factor XIa from Kordia, 15 min preincubation, 30 min at 22° C., fluorescence
T1 construct: purchased Kordia
T1 sequence (P03951 388-625 limits assumed): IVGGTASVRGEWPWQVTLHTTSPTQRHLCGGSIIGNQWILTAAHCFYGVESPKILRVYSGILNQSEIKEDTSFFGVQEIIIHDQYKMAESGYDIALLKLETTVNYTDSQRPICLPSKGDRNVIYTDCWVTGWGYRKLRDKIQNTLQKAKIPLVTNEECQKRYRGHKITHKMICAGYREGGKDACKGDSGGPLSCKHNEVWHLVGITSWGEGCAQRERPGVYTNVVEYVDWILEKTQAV
T1 sequence (P03951 19-387 partner limits assumed): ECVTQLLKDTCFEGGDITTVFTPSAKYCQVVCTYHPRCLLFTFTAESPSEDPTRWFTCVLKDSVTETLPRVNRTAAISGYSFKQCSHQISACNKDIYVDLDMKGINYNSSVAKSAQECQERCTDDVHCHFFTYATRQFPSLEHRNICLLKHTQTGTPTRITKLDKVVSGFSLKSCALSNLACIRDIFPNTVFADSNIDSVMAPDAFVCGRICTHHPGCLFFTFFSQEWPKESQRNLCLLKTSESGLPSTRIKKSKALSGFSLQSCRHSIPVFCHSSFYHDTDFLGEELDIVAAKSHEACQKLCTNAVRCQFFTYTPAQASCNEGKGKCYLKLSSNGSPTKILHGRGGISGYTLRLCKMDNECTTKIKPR
Summary of the method: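 Released AMC fluorescence (360/460 nm) read after 30 min at 22 °C. The reaction was started with Boc-Glu(OBzl)-Ala-Arg-AMC (10 μM stock) after a 15 min preincubation of the enzyme (0.45 nM stock) with compound (final 50 μM to 0.00013 μM).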

human plasmin = target: T2, human plasmin (Homo sapiens, UniProt P00747); test: Measurement of plasmin inhibition (fluorogenic peptide substrate MeOSuc-Ala-Phe-Lys-AMC); format: biochemical; conditions: plasmin from Kordia, 15 min preincubation, 30 min at 22° C., fluorescence
T2 construct: purchased Kordia
T2 sequence (P00747 581-810 limits assumed): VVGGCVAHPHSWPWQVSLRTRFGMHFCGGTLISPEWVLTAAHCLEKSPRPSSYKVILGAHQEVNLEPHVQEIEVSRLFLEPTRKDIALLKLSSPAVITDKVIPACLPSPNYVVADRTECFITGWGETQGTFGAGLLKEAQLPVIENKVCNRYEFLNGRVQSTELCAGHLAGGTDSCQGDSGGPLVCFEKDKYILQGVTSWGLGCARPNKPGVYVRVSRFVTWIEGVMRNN
T2 sequence (P00747 97-580 partner limits assumed): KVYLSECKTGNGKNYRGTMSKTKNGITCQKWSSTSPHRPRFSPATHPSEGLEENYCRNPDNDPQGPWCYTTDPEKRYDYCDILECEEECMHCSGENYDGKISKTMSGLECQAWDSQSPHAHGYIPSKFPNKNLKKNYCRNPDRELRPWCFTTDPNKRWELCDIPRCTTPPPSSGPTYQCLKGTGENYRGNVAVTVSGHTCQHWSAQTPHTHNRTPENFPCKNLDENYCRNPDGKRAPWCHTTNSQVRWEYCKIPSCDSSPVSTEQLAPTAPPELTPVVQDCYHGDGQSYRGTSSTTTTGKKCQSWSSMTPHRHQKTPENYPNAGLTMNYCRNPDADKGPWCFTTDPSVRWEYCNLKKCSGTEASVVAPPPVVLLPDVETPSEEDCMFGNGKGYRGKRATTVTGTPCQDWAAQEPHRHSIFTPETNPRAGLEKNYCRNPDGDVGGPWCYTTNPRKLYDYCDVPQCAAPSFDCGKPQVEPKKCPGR
Method: The plasmin inhibition of the inventive substances is determined using a biochemical test system which utilizes the reaction of a peptidic plasmin substrate to determine the enzymatic activity of human plasmin. Here, plasmin cleaves from the peptic plasmin substrate the C-terminal aminomethylcoumarin (AMC), the fluorescence of which is measured. The determinations are carried out in microtitre plates.
Test substances are dissolved in dimethyl sulphoxide and serially diluted in dimethyl sulphoxide (3000 μM to 0.0078 μM; resulting final concentrations in the test: 50 μM to 0.00013 μM). In each case 1 μl of the diluted substance solutions are placed into the wells of white microtitre plates from Greiner (384 wells). Subsequently, the following are added successively: 20 μl of assay buffer (50 mmol/Tris buffer pH 7.4; 100 mmol/l sodium chloride; 5 mmol/calcium chloride; 0.1% bovine serum albumin) and 20 μl of plasmin from Kordia (0.3 μg/ml in assay buffer) are then added successively. After 15 min of incubation, the enzyme reaction is started by addition of 20 μl of the plasmin substrate MeOSuc-Ala-Phe-Lys-AMC dissolved in assay buffer (150 μM in assay buffer) from Bachem, the mixture is incubated at room temperature (22° C.) for 30 min and fluorescence is then measured (excitation: 360 nm, emission: 460 nm). The measured emissions of the test batches with test substance are compared to those of control batches without test substance (only dimethyl sulphoxide instead of test substance in dimethyl sulphoxide), and the IC50 values are calculated from the concentration/activity relationships.

Row | SMILES | aPTT (human and animal plasma) [µmol/L] | IC50 (human factor XIa) [nM] | IC50 (human plasmin) [nM]
1 | Cc1cc(C(=O)NC2CC2)ccc1-c1ccc(C[C@H](NC(=O)[C@H]2CC[C@H](CN)CC2)C(=O)Nc2ccc3cn[nH]c3c2)cc1 [Example 167, 4′-[(2S)-2-({[trans-4-(Aminomethyl)cyclohexyl]carbonyl}amino)-3-(1H-indazol-6-ylamino)-3-oxopropyl]-N-cyclopropyl-2-methylbiphenyl-4-carboxamide hydrochloride] | 0.12 | 6 | 1.9
2 | Cc1cc(C(=O)NC(C)CO)ccc1-c1ccc(C[C@H](NC(=O)[C@H]2CC[C@H](CN)CC2)C(=O)Nc2ccc(-c3nnn[nH]3)cc2)cc1 (stereo partly drawn) [Example 139, 4′-[(2S)-2-({[trans-4-(Aminomethyl)cyclohexyl]carbonyl}amino)-3-oxo-3-{[4-(1H-tetrazol-5-yl)phenyl]amino}propyl]-N-(1-hydroxypropan-2-yl)-2-methylbiphenyl-4-carboxamide hydrochloride] | 0.17 | 4.1 | 13
3 | Cc1cc(C(=O)NC2CCC2)ccc1-c1ccc(C[C@H](NC(=O)[C@H]2CC[C@H](CN)CC2)C(=O)Nc2ccc3c(=O)[nH][nH]c3c2)cc1 [Example 162, 4′-{(2S)-2-({[trans-4-(Aminomethyl)cyclohexyl]carbonyl}amino)-3-oxo-3-[(3-oxo-2,3-dihydro-1H-indazol-6-yl)amino]propyl}-N-cyclobutyl-2-methylbiphenyl-4-carboxamide hydrochloride] | 0.15 | 1.8 | 1.1
4 | Cc1cc(C(=O)NC(C)C)ccc1-c1ccc(C[C@H](NC(=O)[C@H]2CC[C@H](CN)CC2)C(=O)Nc2cc(Cl)c3cn[nH]c3c2)cc1 [Example 159, 4′-{(2S)-2-({[trans-4-(Aminomethyl)cyclohexyl]carbonyl}amino)-3-[(4-chloro-1H-indazol-6-yl)amino]-3-oxopropyl}-N-isopropyl-2-methylbiphenyl-4-carboxamide hydrochloride] | 0.36 | 3.5 | 0.32
5 | Cc1cc(C(=O)NC(C)C)ccc1-c1ccc(C[C@H](NC(=O)[C@H]2CC[C@H](CN)CC2)C(=O)Nc2ccc3c(c2)[nH]c(=O)n3C)cc1 [Example 140, 4′-{(2S)-2-({[trans-4-(Aminomethyl)cyclohexyl]carbonyl}amino)-3-[(1-methyl-2-oxo-2,3-dihydro-1H-benzimidazol-5-yl)amino]-3-oxopropyl}-N-isopropyl-2-methylbiphenyl-4-carboxamide hydrochloride] | 0.25 | 13 | 1.5
6 | Cc1cc(C(=O)NC(C)C)ccc1-c1ccc(C[C@H](NC(=O)[C@H]2CC[C@H](CN)CC2)C(=O)Nc2ccc3c(=O)[nH][nH]c3c2)cc1 [Example 135, 4′-{(2S)-2-({[trans-4-(Aminomethyl)cyclohexyl]carbonyl}amino)-3-oxo-3-[(3-oxo-2,3-dihydro-1H-indazol-6-yl)amino]propyl}-N-isopropyl-2-methylbiphenyl-4-carboxamide hydrochloride] | 0.24 | 2.2 | 0.96
7 | Cc1cc(C(=O)N2CCC3CNC(=O)C32)ccc1-c1ccc(C[C@H](NC(=O)[C@H]2CC[C@H](CN)CC2)C(=O)Nc2ccc3cn[nH]c3c2)cc1 (stereo partly drawn) [Example 163, trans-4-(Aminomethyl)-N-[(2S)-1-(1H-indazol-6-ylamino)-3-{2′-methyl-4′-[(6-oxohexahydropyrrolo[3,4-b]pyrrol-1(2H)-yl)carbonyl]biphenyl-4-yl}-1-oxopropan-2-yl]cyclohexanecarboxamide hydrochloride] | 0.07 | 10 | 8.8
8 | Cc1cc(C(=O)NC2CC2)ccc1-c1ccc(C[C@H](NC(=O)[C@H]2CC[C@H](CN)CC2)C(=O)Nc2ccc3[nH]nnc3c2)cc1 [Example 141, 4′-[(2S)-2-({[trans-4-(Aminomethyl)cyclohexyl]carbonyl}amino)-3-(1H-benzotriazol-5-ylamino)-3-oxopropyl]-N-cyclopropyl-2-methylbiphenyl-4-carboxamide hydrochloride] | 0.30 | 3.9 | 1.6
